In patent US8911984B2, “Tannase, gene encoding same, and process for producing same” (Amano Enzyme Inc., priority 2008, dated 2014):

Experiments:
Tannase = assay: Effect of metallic ion and inhibitor on tannase activity; type: biochemical, Aspergillus awamori; settings: 30° C. 30 minutes, pH 5.0; for Relative activity (%): no addition = 100%
Procedure: 0.5 mL of a 50 mM citric acid buffer solution (pH 5.0) containing 1% tannic acid (Tannic acid, ACS Reagent [SIGMA]) is added with 0.5 ml of an enzyme solution, […], thereafter adding a 0.2 M acetic acid buffer solution (pH 5.0) containing 2% BSA to terminate the reaction. After terminating the reaction, the reaction solution is stood still in ice for 20 minutes and then centrifuged at 3,000 rpm for 20 minutes. The obtained supernatant is diluted 50 holds and an absorbance at a wavelength of 260 nm is measured. An analytical curve (standard curve) is formed using gallic acid and an enzyme amount that releases 1 μM of gallic acid for 1 minute is assumed to be 1 unit. […] The activity increased by addition of urea.

[1] = system: tannase derived from Aspergillus awamori; assay: Substrate specificity of tannase (rhodanine method); type: biochemical; settings: 0.17% tannic acid or 10 mM gallic acid ester, pH 5.0, 37° C., 30 minutes; tannic acid = 100%
Procedure: As described below, the method of Sharma (Anal. Biochem. 279, 85-89, 2000) was modified and substrate specificity was measured.
125 μL of a 50 mM citric acid buffer solution (pH 5.0) containing 0.17% tannic acid or 10 mM gallic acid esters (methyl gallate, ethyl gallate, propyl gallate, and isoamyl gallate) is added with 125 μL of an enzyme solution and incubated at 37° C. for 30 minutes, followed by adding and mixing 300 μL of methanol containing 0.667% Rhodanine, and the reaction solution is stood still for 10 minutes. Next, 200 μL of 0.5 N NaOH is added and mixed and the reaction solution is stood still for 10 minutes. Subsequently, the reaction solution is diluted with 9 mL of distilled water and left for 5 minutes, and an absorbance at a wavelength of 520 nm is measured. An analytical curve (standard curve) was formed using gallic acid and an activity that releases 1 μM of gallic acid for 1 minute is assumed to be 1 unit.
Substrate specificities to tannic acid and gallic acid esters (methyl gallate, ethyl gallate, propyl gallate, and isoamyl gallate) were measured in the above-mentioned measurement method of substrate specificity. When a dissolution activity to tannic acid was assumed to be 100%, a dissolution activity of each of the gallic acid esters was 41% for methyl gallate, 30% for ethyl gallate, 29% for propyl gallate, and 27% for isoamyl gallate.

[2] = pH stability of purified tannase; type: biochemical; settings: 30° C., 30 minutes
Procedure: (§1) 0.5 mL of a 50 mM citric acid buffer solution (pH 5.0) containing 1% tannic acid (Tannic acid, ACS Reagent [SIGMA]) is added with 0.5 ml of an enzyme solution, and incubated at 37° C. for 30 minutes, thereafter adding a 0.2 M acetic acid buffer solution (pH 5.0) containing 2% BSA to terminate the reaction. After terminating the reaction, the reaction solution is stood still in ice for 20 minutes and then centrifuged at 3,000 rpm for 20 minutes. The obtained supernatant is diluted 50 holds and an absorbance at a wavelength of 260 nm is measured. An analytical curve (standard curve) is formed using gallic acid and an enzyme amount that releases 1 μM of gallic acid for 1 minute is assumed to be 1 unit.
The purified enzyme was treated in each buffer solution (citric acid buffer solutions at pH 3.0, 3.5, 4.0, 4.5, 5.0, 5.5 and 6.0, and phosphate buffer solutions at pH 6.0, 6.5, 7.0, 7.5 and 8.0) at 30° C. for 30 minutes and diluted 5 holds with a 0.2 M acetic acid buffer solution (pH 5.0), and an activity was measured in the above-mentioned measurement method of a tannase activity. Each measurement result was shown as a relative activity, assuming a value of a pH showing the maximum activity as 100% (FIG. 4). The stable pH range was from 3 to 8.

[3] = Isoelectric point by isoelectric electrophoresis (PhastSystem); type: physicochemical
Procedure: When the isoelectric point of the present enzyme was measured by isoelectric electrophoresis using PhastSystem (GE Healthcare Bio-Sciences Ltd.), it was 6.4.

[4] = Thermostability of purified tannase (residual activity after thermal treatment); type: biochemical; settings: 30 minutes, 50 mM citric acid buffer solution (pH 5.0)
Procedure: as §1
The purified enzyme was thermally treated for 30 minutes at each temperature of 30° C., 35° C., 40° C., 45° C., 50° C., 55° C., 60° C., 65° C., 70° C., 75° C. and 80° C. in a 50 mM citric acid buffer solution (pH 5.0), and a residual activity was then measured in the above-mentioned measurement method of a tannase activity. Each measurement result was shown as a residual activity, assuming a thermally untreated activity as 100% (FIG. 3). The purified enzyme had 90% or more of a residual activity in the thermal treatment at 65° C. for 30 minutes and was stable until 65° C.

[5] = Optimum reaction pH of tannase; type: biochemical; settings: 37° C., 30 minutes, 1% tannic acid; citric acid buffer pH 3-6, phosphate buffer pH 6-8
Procedure: as §1
The optimum reaction pH was measured under the reaction condition of 37° C. for 30 minutes in each buffer solution (citric acid buffer solutions at pH 3.0, 3.5, 4.0, 4.5, 5.0, 5.5 and 6.0, and phosphate buffer solutions at pH 6.0, 6.5, 7.0, 7.5 and 8.0) using 1% tannic acid for a substrate. Each measurement result was shown as a relative activity, assuming a value of a pH showing the maximum activity as 100% (FIG. 2). The optimum reaction pH was about 5.5.

[6] = Optimum reaction temperature of tannase; type: biochemical; settings: 50 mM citric acid buffer solution (pH 5.0), 30-80° C. tested
Procedure: as §1
According to the above-mentioned measurement method of a tannase activity, the purified enzyme was reacted at reaction temperatures of 30° C., 35° C., 40° C., 45° C., 50° C., 55° C., 60° C., 65° C., 70° C., 75° C. and 80° C. Each measurement result was shown as a relative activity, assuming a value at a temperature showing the maximum activity as 100% (FIG. 1). The optimum reaction temperature was around 70° C.

Molecule: [Ca+2] [Ca^2+]
- Relative activity (%) (Tannase; 20 mM metallic ion or EDTA): 109%

Molecule: [Cu+2] [Cu^2+]
- Relative activity (%) (Tannase; 20 mM metallic ion or EDTA): 72%

Molecule: O=C(O)CN(CCN(CC(=O)O)CC(=O)O)CC(=O)O [EDTA]
- Relative activity (%) (Tannase; 20 mM metallic ion or EDTA): 101%

Molecule: [Fe+3] [Fe^3+]
- Relative activity (%) (Tannase; 20 mM metallic ion or EDTA): 91%

Molecule: [Mg+2] [Mg^2+]
- Relative activity (%) (Tannase; 20 mM metallic ion or EDTA): 118%

Molecule: [Mn+2] [Mn^2+]
- Relative activity (%) (Tannase; 20 mM metallic ion or EDTA): 98%

Molecule: NC(N)=O [Urea, urea]
- effect on tannase activity (in words) (Tannase): increased
- Relative activity (%) (Tannase; urea 0.4 M): 108%
- Relative activity (%) (Tannase; urea 0.8 M): 117%
- Relative activity (%) (Tannase; urea 2 M): 150%
- Relative activity (%) (Tannase; urea 4 M): 197%

Molecule: [Zn+2] [Zn^2+]
- Relative activity (%) (Tannase; 20 mM metallic ion or EDTA): 82%

Molecule: CCOC(=O)c1cc(O)c(O)c(O)c1 [ethyl gallate]
- dissolution activity relative to tannic acid [1]: 30%

Molecule: CC(C)CCOC(=O)c1cc(O)c(O)c(O)c1 [isoamyl gallate]
- dissolution activity relative to tannic acid [1]: 27%

Molecule: COC(=O)c1cc(O)c(O)c(O)c1 [methyl gallate]
- dissolution activity relative to tannic acid [1]: 41%

Molecule: CCCOC(=O)c1cc(O)c(O)c(O)c1 [propyl gallate]
- dissolution activity relative to tannic acid [1]: 29%

Molecule: O=C(OC[C@H]1O[C@@H](OC(=O)c2cc(O)c(O)c(OC(=O)c3cc(O)c(O)c(O)c3)c2)[C@H](OC(=O)c2cc(O)c(O)c(OC(=O)c3cc(O)c(O)c(O)c3)c2)[C@@H](OC(=O)c2cc(O)c(O)c(OC(=O)c3cc(O)c(O)c(O)c3)c2)[C@@H]1OC(=O)c1cc(O)c(O)c(OC(=O)c2cc(O)c(O)c(O)c2)c1)c1cc(O)c(O)c(OC(=O)c2cc(O)c(O)c(O)c2)c1 [tannic acid]
- dissolution activity relative to tannic acid [1]: 100%

B1: purified enzyme: tannase purified from Aspergillus awamori NBRC-4033 (IFO-4033), amino acid sequence SEQ ID NO: 5 (protein, listed as Aspergillus awamorii)
chain: MRSPAWASIAITAFAALANAGTPSTLAELCTDSIVKAALPPSEFIKGITIDSDSVTTEVVTNSSFSSEFYPSATIDYCNVTFAYSHDGIDGDQVLLEIWLPAPTNFKNRWLSTGGGGYAINSGDQSLPGGVMYGAASGMTDGGFGGFSNNADTAMLLANGTLNYETLYMFAYKAHRELSLLGKALTRNVYGMSDSDKLYAYYQGCSEGGREGWSQVQRFGDEWDGAIIGAPAFRWSFQQTQHLYSNIVEKTLDYYPPPCELDKIVNETIAACDAMDGKVDWVVARTDLCLLDFDISTIEGKPYSCAASRGTPAQNGTVSAKGIEVAKTIINGLHDSQGRRVYFSYQPTAAFDDAETQYNSTTGQWGLDIDQLGGEYIALLVDKNGTTLDSLDGITYDTLKDWMISGLQEYYSTLQTTWPDLTPFHNAGGKVIHFHGDADFSIPTAASIRYWESVRSIMYPNKDYNSSAEALNEWYRLYTVPGAGHCATNDAMPNGPFPQTNMAVMIDWVENGVVPTTLNATVLQGENEGQNQQLCAWPLRPLWTNNGTTMECVYNQRSIDSWHYDLDAVPMPVY
- activity with respect to the maximum activity after treatment within pH 3 to 8 [2]: ≥ 80%
- isoelectric point [3]: 6.4
- residual activity after thermal treatment ([4]; 65° C., untreated = 100%): ≥ 90%
- temperature up to which enzyme is stable [4]: ≤ 65 °C
- optimum reaction pH [5]: about 5.5
- optimum reaction temperature [6]: around 70 °C
